Data published in PubChem BioAssay (NCI).
“And” between values parts separate entries of the source, which are not always exact repeats. Equal entries are not always repeated.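 Step 1: Grow cells in 96-well plates. Step 2: Expose to compound for 48 hours at 5 concentrations. Step 3: Interpolate endpoints linearly; if unreached, use highest concentration. GI50: concentration for 50% inhibition of growth. TGI: concentration producing complete growth inhibition.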

Experiments:
Assay in all cases: inhibition of tumour cell growth, NCI panel, 48 h
A549 NSCLC = tested on: A549 NSCLC
COLO 205 colon = tested on: COLO 205 colon
KM12 colon = tested on: KM12 colon
NCI-H460 lung = tested on: NCI-H460 lung
OVCAR-8 ovarian = tested on: OVCAR-8 ovarian
RPMI-8226 leukemia = tested on: RPMI-8226 leukemia
SK-OV-3 ovarian = tested on: SK-OV-3 ovarian
SW-620 colon = tested on: SW-620 colon
TK-10 renal = tested on: TK-10 renal
U251 CNS = tested on: U251 CNS

## COc1nc(NC2OC(COC(C)=O)C(OC(C)=O)C(OC(C)=O)C2OC(C)=O)c(N=C(C)C(C)=O)c(=O)n1C (centres undefined)
A549 NSCLC
  TGI: > 100 µM
COLO 205 colon
  TGI: > 100 µM
KM12 colon
  TGI: > 100 µM
NCI-H460 lung
  TGI: > 100 µM
OVCAR-8 ovarian
  TGI: > 100 µM
RPMI-8226 leukemia
  TGI: > 100 µM
SK-OV-3 ovarian
  TGI: > 100 µM
SW-620 colon
  TGI: > 100 µM
TK-10 renal
  TGI: > 100 µM
U251 CNS
  TGI: > 100 µM

## Oc1cccc2ccc(SSc3ccc4cccc(O)c4n3)nc12
A549 NSCLC
  TGI: > 100 µM
COLO 205 colon
  TGI: 35.2 µM
KM12 colon
  TGI: 29.5 µM
NCI-H460 lung
  TGI: 42.6 µM
OVCAR-8 ovarian
  TGI: 36.3 µM
RPMI-8226 leukemia
  TGI: > 100 µM
SK-OV-3 ovarian
  TGI: 31.7 µM
SW-620 colon
  TGI: 96.4 µM
TK-10 renal
  TGI: 41.3 µM
U251 CNS
  TGI: 30 µM

## COC(=O)[C@@H](C)C[C@H](Cc1ccc(F)cc1)NC(=O)c1csc([C@@H](C[C@H](C(C)C)N(C)C(=O)[C@@H](NC(=O)[C@H]2CCCCN2C)C2CC2)OC(C)=O)n1
A549 NSCLC
  GI50: 0.959 µM
  TGI: > 25 µM
COLO 205 colon
  GI50: 0.184 µM
  TGI: 1.47 µM
KM12 colon
  GI50: 0.28 µM
  TGI: > 25 µM
NCI-H460 lung
  GI50: 0.255 µM
  TGI: > 25 µM
OVCAR-8 ovarian
  GI50: 0.537 µM
  TGI: > 25 µM
RPMI-8226 leukemia
  GI50: 0.104 µM
  TGI: > 25 µM
SK-OV-3 ovarian
  GI50: 5.39 µM
  TGI: > 25 µM
SW-620 colon
  GI50: 0.129 µM
  TGI: > 25 µM
TK-10 renal
  GI50: > 13.8 µM
  TGI: > 25 µM
U251 CNS
  GI50: 0.293 µM
  TGI: > 25 µM

## Cc1ccc(NC(=O)CCc2nnc3s/c(=C\C=C\c4ccccc4)c(=O)n23)cc1
A549 NSCLC
  TGI: > 100 µM
COLO 205 colon
  TGI: > 100 µM
KM12 colon
  TGI: > 100 µM
NCI-H460 lung
  TGI: > 100 µM
OVCAR-8 ovarian
  TGI: 77.4 µM
RPMI-8226 leukemia
  TGI: > 82.1 µM
SK-OV-3 ovarian
  TGI: > 100 µM
SW-620 colon
  TGI: > 100 µM
TK-10 renal
  TGI: > 100 µM
U251 CNS
  TGI: > 100 µM

## COc1nc2c(c(=O)n1C)CN(c1ccccc1)C(=O)CN2C
A549 NSCLC
  GI50: > 100 µM
  TGI: > 100 µM
COLO 205 colon
  GI50: 40.6 µM
  TGI: > 100 µM
KM12 colon
  GI50: 27.3 µM
  TGI: > 100 µM
NCI-H460 lung
  GI50: 60.2 µM
  TGI: > 100 µM
OVCAR-8 ovarian
  GI50: 74.5 µM
  TGI: > 100 µM
RPMI-8226 leukemia
  GI50: 72.6 µM
  TGI: > 100 µM
SK-OV-3 ovarian
  GI50: > 100 µM
  TGI: > 100 µM
SW-620 colon
  GI50: > 100 µM
  TGI: > 100 µM
TK-10 renal
  GI50: 51.1 µM
  TGI: > 100 µM
U251 CNS
  GI50: 78.9 µM
  TGI: > 100 µM

## COc1ccc2c(c1)/C(=C\c1c(-c3ccccc3)nc3sccn13)C(=O)N2
A549 NSCLC
  GI50: 7.2 µM
  TGI: > 100 µM
COLO 205 colon
  GI50: 18.7 µM
  TGI: 45.8 µM
KM12 colon
  GI50: 1.55 µM
NCI-H460 lung
  GI50: 7.08 µM
  TGI: > 24.4 µM
OVCAR-8 ovarian
  GI50: 20.9 µM
  TGI: > 72.2 µM
RPMI-8226 leukemia
  GI50: 1.57 µM
  TGI: 5.51 µM
SK-OV-3 ovarian
  TGI: > 65.8 µM
SW-620 colon
  TGI: > 49.6 µM
TK-10 renal
  GI50: > 23.4 µM
  TGI: > 72.9 µM
U251 CNS
  GI50: 5.88 µM
  TGI: 27.9 µM

## OCC1CC2C=CCC(C2)C1 (centres undefined)
A549 NSCLC
  TGI: > 100 µM
COLO 205 colon
  TGI: > 100 µM
KM12 colon
  TGI: > 100 µM
NCI-H460 lung
  TGI: > 100 µM
OVCAR-8 ovarian
  TGI: > 100 µM
RPMI-8226 leukemia
  TGI: > 100 µM
SK-OV-3 ovarian
  TGI: > 100 µM
SW-620 colon
  TGI: > 100 µM
TK-10 renal
  TGI: > 100 µM
U251 CNS
  TGI: > 100 µM

## O=[N+]([O-])c1cc(I)cc(/C=N/NS(=O)(=O)c2ccc(F)cc2)c1O
A549 NSCLC
  TGI: > 100 µM
COLO 205 colon
  TGI: 32.4 µM
KM12 colon
  TGI: 61.9 µM
NCI-H460 lung
  TGI: 44 µM
OVCAR-8 ovarian
  TGI: 55.3 µM
RPMI-8226 leukemia
  TGI: 54.8 µM
SK-OV-3 ovarian
  TGI: 70.2 µM
SW-620 colon
  TGI: > 100 µM
TK-10 renal
  TGI: 77.7 µM
U251 CNS
  TGI: 59.9 µM

## O=C1CC=C2C3CC4N(CCC45c4ccccc4N1C25)C/C3=C\CO (centres undefined)
A549 NSCLC
  TGI: > 100 µM
COLO 205 colon
  TGI: > 100 µM
KM12 colon
  TGI: > 100 µM
NCI-H460 lung
  TGI: > 100 µM
OVCAR-8 ovarian
  TGI: > 100 µM
RPMI-8226 leukemia
  TGI: > 100 µM
SK-OV-3 ovarian
  TGI: > 100 µM
SW-620 colon
  TGI: > 100 µM
TK-10 renal
  TGI: > 100 µM
U251 CNS
  TGI: > 100 µM

## CCOC(=O)NC(=O)c1cn(C2CCCCC2)c(=O)n(C)c1=O
A549 NSCLC
  TGI: > 100 µM
COLO 205 colon
  TGI: > 100 µM
KM12 colon
  TGI: > 100 µM
NCI-H460 lung
  TGI: > 100 µM
OVCAR-8 ovarian
  TGI: > 100 µM
RPMI-8226 leukemia
  TGI: > 100 µM
SK-OV-3 ovarian
  TGI: > 100 µM
SW-620 colon
  TGI: > 100 µM
TK-10 renal
  TGI: > 100 µM
U251 CNS
  TGI: > 100 µM

## C[N+]1(CCNP(=S)(NCC[N+]2(C)Cc3c(ccc4c3OCO4)C3C2c2cc4c(cc2C[C@@H]3O)OCO4)NCC[N+]2(C)Cc3c(ccc4c3OCO4)C3C2c2cc4c(cc2C[C@@H]3O)OCO4)Cc2c(ccc3c2OCO3)C2C1c1cc3c(cc1C[C@H]2O)OCO3 (some centres undefined)
A549 NSCLC
  GI50: 2.89 µM
COLO 205 colon
  GI50: 1.65 µM
KM12 colon
  GI50: 1.78 µM
NCI-H460 lung
  GI50: 0.976 µM
OVCAR-8 ovarian
  TGI: < 0.00191 µM
RPMI-8226 leukemia
  TGI: < 0.00191 µM
SK-OV-3 ovarian
  GI50: 2.96 µM
SW-620 colon
  GI50: 1.4 µM
TK-10 renal
  GI50: 8.2 µM
U251 CNS
  GI50: 1.99 µM

## COC(=O)[C@@H](C)C[C@H](Cc1ccccc1)NC(=O)c1csc([C@@H](C[C@H](C(C)C)N(C)C(=O)[C@@H](NC(=O)[C@H]2CCCCN2C)c2ccc(F)cc2)OC(C)=O)n1
A549 NSCLC
  TGI: 25 µM and > 100 µM
COLO 205 colon
  GI50: 0.0113 µM and 0.0379 µM
  TGI: 0.127 µM and 0.526 µM
KM12 colon
  TGI: 25 µM and > 100 µM
NCI-H460 lung
  TGI: 25 µM and > 100 µM
OVCAR-8 ovarian
  TGI: 25 µM and > 100 µM
RPMI-8226 leukemia
  GI50: 0.00504 µM and 0.0025 µM and 0.0207 µM
  TGI: 25 µM and 22 µM
SK-OV-3 ovarian
  TGI: 25 µM and > 100 µM
SW-620 colon
  TGI: 25 µM and > 100 µM
TK-10 renal
  TGI: 25 µM and > 100 µM
U251 CNS
  TGI: 25 µM and > 100 µM

## CCCC(=O)Oc1ccc(/C=N/NC(N)=S)nc1
A549 NSCLC
  TGI: > 100 µM
COLO 205 colon
  TGI: > 100 µM
KM12 colon
  TGI: > 100 µM
NCI-H460 lung
  TGI: > 100 µM
OVCAR-8 ovarian
  TGI: > 100 µM
RPMI-8226 leukemia
  TGI: > 100 µM
SK-OV-3 ovarian
  TGI: > 100 µM
SW-620 colon
  TGI: > 100 µM
TK-10 renal
  TGI: > 100 µM
U251 CNS
  TGI: > 100 µM

## CC[C@H](C)[C@H](NC(=O)c1ncccn1)C(=O)N(C)[C@H](C[C@@H](OC(C)=O)c1nc(C(=O)N[C@@H](Cc2ccccc2)C[C@H](C)C(=O)OC)cs1)C(C)C
A549 NSCLC
  GI50: 6.23 µM
  TGI: > 25 µM
COLO 205 colon
  GI50: 1.01 µM
  TGI: 4.97 µM
KM12 colon
  GI50: 1.04 µM
  TGI: > 25 µM
NCI-H460 lung
  GI50: 0.925 µM
  TGI: > 25 µM
OVCAR-8 ovarian
  GI50: 2.25 µM
  TGI: > 25 µM
RPMI-8226 leukemia
  GI50: 0.793 µM
  TGI: 3.98 µM
SK-OV-3 ovarian
  GI50: 5.51 µM
  TGI: > 25 µM
SW-620 colon
  GI50: 0.896 µM
  TGI: > 25 µM
TK-10 renal
  GI50: 16.6 µM
  TGI: > 25 µM
U251 CNS
  GI50: 2.39 µM
  TGI: > 25 µM

## Cn1cc(-c2ncnc3ccc(-c4cnc(Cl)c(NS(C)(=O)=O)c4)cc23)c2ccccc21
A549 NSCLC
  GI50: 0.814 µM
  TGI: 9.41 µM
COLO 205 colon
  GI50: 0.829 µM
  TGI: 13.1 µM
KM12 colon
  GI50: 1.46 µM
  TGI: 19.2 µM
NCI-H460 lung
  GI50: 0.365 µM
  TGI: > 100 µM
OVCAR-8 ovarian
  GI50: 1.72 µM
  TGI: > 100 µM
RPMI-8226 leukemia
  GI50: 0.419 µM
  TGI: 4.17 µM
SK-OV-3 ovarian
  GI50: 0.263 µM
  TGI: 2.32 µM
SW-620 colon
  GI50: 1.28 µM
  TGI: > 100 µM
TK-10 renal
  GI50: 0.505 µM
  TGI: 10.6 µM
U251 CNS
  GI50: 1.65 µM
  TGI: 23.4 µM

## COc1cccc(C2SC(C)C(=O)N2NC(=O)C(O)c2ccccc2)c1 (centres undefined)
A549 NSCLC
  GI50: > 100 µM
  TGI: > 100 µM
COLO 205 colon
  GI50: > 100 µM
  TGI: > 100 µM
KM12 colon
  GI50: > 100 µM
  TGI: > 100 µM
NCI-H460 lung
  GI50: > 100 µM
  TGI: > 100 µM
OVCAR-8 ovarian
  GI50: > 100 µM
  TGI: > 100 µM
RPMI-8226 leukemia
  GI50: > 100 µM
  TGI: > 100 µM
SK-OV-3 ovarian
  GI50: > 100 µM
  TGI: > 100 µM
SW-620 colon
  GI50: > 100 µM
  TGI: > 100 µM
TK-10 renal
  GI50: > 100 µM
  TGI: > 100 µM
U251 CNS
  GI50: > 100 µM
  TGI: > 100 µM
